Test results taken from patent publication US20230339851A1, “CXCR6 SULFONAMIDE COMPOUNDS” (CHEMOCENTRYX, INC., priority 2022, published 2023).

target: T1, human CXCR6 (Homo sapiens, UniProt O00574); assay: Radioligand Binding Assay (125I-CXCL16 displacement); details: L1.2 cells stably transfected with human CXCR6 cDNA, 0.1 nM 125I-CXCL16, 4° C., three-hour incubation; read-out: Potency (IC50)
T1 construct: expressed in transfected cells
In short: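 L1.2 cells stably expressing human CXCR6 incubated 3 h at 4 °C in HBSS/0.1% BSA with 0.1 nM 125I-CXCL16 and graded compound concentrations. Bound radioactivity collected by filtration and counted; IC50 from 3-parameter nonlinear regression.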

T1 sequence (O00574 whole entry): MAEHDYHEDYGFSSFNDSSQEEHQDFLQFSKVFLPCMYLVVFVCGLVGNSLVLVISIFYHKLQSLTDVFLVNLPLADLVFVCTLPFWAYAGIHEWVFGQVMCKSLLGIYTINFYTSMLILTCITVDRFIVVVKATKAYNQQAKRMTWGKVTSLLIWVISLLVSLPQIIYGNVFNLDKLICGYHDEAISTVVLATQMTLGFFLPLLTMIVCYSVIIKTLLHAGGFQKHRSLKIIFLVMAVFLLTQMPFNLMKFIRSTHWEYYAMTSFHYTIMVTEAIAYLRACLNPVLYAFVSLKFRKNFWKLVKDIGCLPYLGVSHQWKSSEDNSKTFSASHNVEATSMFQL

SMILES | IC50 [nM]
CC(=O)Nc1ccc(S(=O)(=O)Nc2cccc(C(F)(F)F)c2)c(F)c1 [Example 1.385] | 2000 to 20000
Cc1cc(NC(=O)[C@@H](CO)c2ccccc2)ccc1S(=O)(=O)Nc1cccc(C(F)(F)F)c1 [Example 1.459] | 750 to 2000
CCOc1cc(NC(=O)C2CCS(=O)(=O)CC2)ccc1S(=O)(=O)Nc1cccc(OC(F)(F)F)c1 [Example 1.470] | 2000 to 20000
CCOc1cc(NC(=O)[C@@H](O)C(C)C)ccc1S(=O)(=O)Nc1ccc(Cl)cc1 [Example 1.398] | 200 to 750
CCOc1cc(NC(=O)Cc2ccccc2)ccc1S(=O)(=O)Nc1cccc(OC(F)(F)F)c1 [Example 1.097] | ≤ 200
CCOc1cc(NC(=O)[C@@H](CO)c2ccccc2)ccc1S(=O)(=O)Nc1ccc(F)c(C)c1 [Example 1.405] | 200 to 750
COc1cc(NC(=O)c2ccnn2C)ccc1S(=O)(=O)Nc1cccc(OC(F)F)c1 [Example 1.041] | 200 to 750
CCOc1cc(NC(=O)C(O)c2c(F)cccc2F)ccc1S(=O)(=O)Nc1cccc(OC(F)(F)F)c1 (stereo not shown) [Example 1.511] | ≤ 200
CCOc1cc(NC(=O)[C@@H](NC(=O)C(F)(F)F)C(C)CC)ccc1S(=O)(=O)Nc1cccc(OC(F)(F)F)c1 (stereo partly shown) [Example 1.089] | ≤ 200
CCOc1cc(NC(=O)[C@H]2CC=CC[C@H]2CO)ccc1S(=O)(=O)Nc1cccc(OC(F)(F)F)c1 [Example 1.539] | 200 to 750
CCOc1cc(NC(=O)[C@@H](CO)c2ccccc2)ccc1S(=O)(=O)Nc1cccc(C(C)C)c1 [Example 1.541] | ≤ 200
CC(=O)Nc1ccc(S(=O)(=O)Nc2cccc(C(F)(F)F)c2)c(C)c1 [Example 1.321] | 2000 to 20000
CCOc1cc(NC(=O)C(O)C2C=CCC2)ccc1S(=O)(=O)Nc1cccc(OC(F)(F)F)c1 (stereo not shown) [Example 1.031] | ≤ 200
CCOc1cc(NC(=O)[C@@H]2CCOCC[C@@H]2O)ccc1S(=O)(=O)Nc1cccc(OC(F)(F)F)c1 [Example 1.513] | 200 to 750
CCOc1cc(NC(=O)c2cccn(C)c2=O)ccc1S(=O)(=O)Nc1cccc(OC(F)(F)F)c1 [Example 1.260] | 2000 to 20000
CCOc1cc(NC(=O)C(CO)CC2CCOCC2)ccc1S(=O)(=O)Nc1cccc(OC(F)(F)F)c1 (stereo not shown) [Example 1.309] | 200 to 750
CCOc1cc(NC(=O)C(CC2CCOCC2)C(=O)O)ccc1S(=O)(=O)Nc1cccc(OC(F)(F)F)c1 (stereo not shown) [Example 1.118] | ≤ 200
COc1cc(NC(=O)CC2CCCCC2)ccc1S(=O)(=O)Nc1cccc(C(F)(F)F)c1 [Example 1.343] | 750 to 2000
CCOc1cc(NC(C)=O)ccc1S(=O)(=O)Nc1cccc(C(F)(F)F)c1 [Example 1.212] | 2000 to 20000
CCOc1cc(NC(=O)C2CCCCCC2)ccc1S(=O)(=O)Nc1cccc(OC(F)(F)F)c1 [Example 1.355] | 750 to 2000
CCOc1cc(NC(=O)C2CCCCN2)ccc1S(=O)(=O)Nc1cccc(OC(F)(F)F)c1 (stereo not shown) [Example 1.300] | 200 to 750

SMILES | IC50 [nM]
CCOc1cc(NC(=O)C(C(=O)O)C2CCC2)ccc1S(=O)(=O)Nc1cccc(OC(F)(F)F)c1 (stereo not shown) [Example 1.218] | ≤ 200
CCOc1cc(NC(=O)C(OC)c2ccccc2)ccc1S(=O)(=O)Nc1cccc(OC(F)(F)F)c1 (stereo not shown) [Example 1.399] | ≤ 200
CCOc1cc(NC(=O)CC(C)(O)C(F)(F)F)ccc1S(=O)(=O)Nc1cccc(OC(F)(F)F)c1 (stereo not shown) [Example 1.512] | 200 to 750
CCOc1cc(NC(=O)c2ccn(CC)c(=O)c2)ccc1S(=O)(=O)Nc1cccc(OC(F)(F)F)c1 [Example 1.396] | ≤ 200
CCOc1cc(NC(=O)C(O)c2cccc(C(F)(F)F)c2)ccc1S(=O)(=O)Nc1cccc(OC(F)(F)F)c1 (stereo not shown) [Example 1.327] | ≤ 200
CCOc1cc(NC(=O)[C@H]2CCOC[C@H]2COC)ccc1S(=O)(=O)Nc1cccc(OC(F)(F)F)c1 [Example 1.499] | ≤ 200
COc1cc(NC(=O)c2ccnn2C)ccc1S(=O)(=O)Nc1ccc(Cl)c(C(F)(F)F)c1 [Example 1.489] | 750 to 2000
COc1cc(NC(=O)[C@@H]2C=CCN2)ccc1S(=O)(=O)Nc1cccc(C(F)(F)F)c1 [Example 1.197] | 750 to 2000
COc1cc(NC(=O)c2ccnn2C)ccc1S(=O)(=O)Nc1cc(Cl)cc(C(F)(F)F)c1 [Example 1.011] | 750 to 2000
COc1cc(NC(=O)c2ccnn2C)ccc1S(=O)(=O)Nc1ccc(C#N)cc1 [Example 1.491] | 2000 to 20000
CCOc1cc(NC(=O)C2CCN(C)CC2)ccc1S(=O)(=O)Nc1cccc(OC(F)(F)F)c1 [Example 1.192] | 2000 to 20000
COc1cc(NC(=O)C2C3CCC(C3)N2C(=O)OC(C)(C)C)ccc1S(=O)(=O)Nc1cccc(C(F)(F)F)c1 (stereo not shown) [Example 1.506] | 750 to 2000
CCc1cc(NC(=O)[C@@H](CO)c2ccccc2)ccc1S(=O)(=O)Nc1cccc(OC(F)(F)F)c1 [Example 1.163] | ≤ 200
Cc1cc(NC(=O)c2ccccc2F)ccc1S(=O)(=O)Nc1cccc(C(F)(F)F)c1 [Example 1.070] | 2000 to 20000
Cc1cc(NC(=O)c2ccc(F)cc2)ccc1S(=O)(=O)Nc1cccc(C(F)(F)F)c1 [Example 1.002] | 200 to 750
CCOc1cc(NC(=O)[C@H]2CC(C)=C(C)C[C@@H]2CO)ccc1S(=O)(=O)Nc1cccc(OC(F)(F)F)c1 [Example 1.250] | ≤ 200
Cc1cc(NC(=O)[C@@H]2CCCN2C(=O)OC(C)(C)C)ccc1S(=O)(=O)Nc1cccc(C(F)(F)F)c1 [Example 1.012] | 2000 to 20000
CCOCCOCCC(C(=O)O)C(=O)Nc1ccc(S(=O)(=O)Nc2cccc(OC(F)(F)F)c2)c(OCC)c1 (stereo not shown) [Example 1.476] | 200 to 750
CC(C)Oc1cc(NC(=O)c2ccns2)ccc1S(=O)(=O)Nc1cccc(C(F)(F)F)c1 [Example 1.542] | 2000 to 20000
CCOc1cc(NC(=O)C(O)c2ccc(C(F)(F)F)cc2)ccc1S(=O)(=O)Nc1cccc(OC(F)(F)F)c1 (stereo not shown) [Example 1.278] | 200 to 750

The remaining lines, values ahead:

IC50 [nM] | SMILES
200 to 750 | CC(C)[C@H](O)C(=O)Nc1ccc(S(=O)(=O)Nc2cccc(OC(F)(F)F)c2)c(OC(F)(F)F)c1 [Example 1.134]
≤ 200 | CCOc1cc(NC(=O)C2CCOCC2)ccc1S(=O)(=O)Nc1ccc(C)c(OC(F)(F)F)c1 [Example 1.123]
2000 to 20000 | CCOc1cc(NC(=O)[C@@H](CO)C(C)C)ccc1S(=O)(=O)Nc1cccc(C(C)(C)O)c1 [Example 1.353]
≤ 200 | CCOc1cc(NC(=O)[C@@H](CO)C(C)C)ccc1S(=O)(=O)Nc1cccc(C(C)C)c1 [Example 1.155]
≤ 200 | CCOc1cc(NC(=O)C(O)C2CC2)ccc1S(=O)(=O)Nc1cccc(OC(F)(F)F)c1 (stereo not shown) [Example 1.198]
200 to 750 | CCOc1cc(NC(=O)[C@H](CO)c2ccccc2)ccc1S(=O)(=O)Nc1cccc(OC(F)(F)F)c1 [Example 1.287]
≤ 200 | CCOc1cc(NC(=O)[C@@H](O)C(C)C)ccc1S(=O)(=O)Nc1ccc(F)c(OC(F)(F)F)c1 [Example 1.209]
≤ 200 | CCOc1cc(NC(=O)[C@@H](NC=O)C(C)C)ccc1S(=O)(=O)Nc1cccc(OC(F)(F)F)c1 [Example 1.298]
≤ 200 | CCOc1cc(NC(=O)C2CC=CC[C@H]2O)ccc1S(=O)(=O)Nc1ccc(C)c(OC(F)(F)F)c1 (stereo partly shown) [Example 1.029]
≤ 200 | CCOc1cc(NC(=O)[C@@H](CO)C2CC2)ccc1S(=O)(=O)Nc1cccc(OC(F)(F)F)c1 [Example 1.053]
≤ 200 | CCOc1cc(NC(=O)[C@@H](CO)C(C)C)ccc1S(=O)(=O)Nc1ccc(F)c(OC(F)(F)F)c1 [Example 1.288]
≤ 200 | CCOc1cc(NC(=O)[C@@H](CO)c2ccccc2)ccc1S(=O)(=O)Nc1ccc(Cl)c(OC(F)(F)F)c1 [Example 1.389]
≤ 200 | CCOc1cc(NC(=O)[C@@H](O)C(C)C)ccc1S(=O)(=O)Nc1ccc(C)c(CC)c1 [Example 1.402]
200 to 750 | CC(C)[C@H](O)C(=O)Nc1ccc(S(=O)(=O)Nc2cccc(OC(F)(F)F)c2)c(C#N)c1 [Example 1.165]
≤ 200 | C=Cc1cc(NS(=O)(=O)c2ccc(NC(=O)[C@@H](O)C(C)C)cc2OCC)ccc1C [Example 1.286]
≤ 200 | Cc1cc(NC(=O)[C@@H](CO)C(C)C)ccc1S(=O)(=O)Nc1cccc(OC(F)(F)F)c1 [Example 1.174]
≤ 200 | CCOc1cc(NC(=O)[C@@H](O)C(C)C)ccc1S(=O)(=O)Nc1ccc(C)c(C(F)(F)F)c1 [Example 1.363]
≤ 200 | CCOc1cc(NC(=O)[C@@H](CO)C(C)C)ccc1S(=O)(=O)Nc1ccc(C)c(C(C)C)c1 [Example 1.057]
≤ 200 | CCC(C)[C@H](O)C(=O)Nc1ccc(S(=O)(=O)Nc2cccc(OC(F)(F)F)c2)c(OC)c1 (stereo partly shown) [Example 1.391]
≤ 200 | CCOc1cc(NC(=O)C(O)C2CCC2)ccc1S(=O)(=O)Nc1cccc(OC(F)(F)F)c1 (stereo not shown) [Example 1.222]
≤ 200 | CCOc1cc(NC(=O)[C@@H](CO)C(C)C)ccc1S(=O)(=O)Nc1ccc(Cl)c(OC(F)(F)F)c1 [Example 1.004]
≤ 200 | CCOc1cc(NC(=O)[C@@H](N)CC(C)C)ccc1S(=O)(=O)Nc1cccc(OC(F)(F)F)c1 [Example 1.109]
≤ 200 | COCc1cc(NC(=O)[C@@H](O)C(C)C)ccc1S(=O)(=O)Nc1cccc(OC(F)(F)F)c1 [Example 1.188]
200 to 750 | CCOc1cc(NC(=O)[C@@H](O)C(C)C)ccc1S(=O)(=O)Nc1cccc(OC(F)(F)F)c1F [Example 1.320]
≤ 200 | CCOc1cc(NC(=O)[C@@H](NC(=O)C(F)(F)F)C(C)C)ccc1S(=O)(=O)Nc1cccc(OC(F)(F)F)c1 [Example 1.503]
≤ 200 | COc1cc(NC(=O)[C@@H](CO)C(C)C)ccc1S(=O)(=O)Nc1ccc(C)c(OC(F)(F)F)c1 [Example 1.191]
≤ 200 | CCOc1cc(NC(=O)[C@@H](O)C(C)C)ccc1S(=O)(=O)Nc1ccc(CC)c(C(F)(F)F)c1 [Example 1.411]
750 to 2000 | CCOc1cc(NC(=O)CC(O)CO)ccc1S(=O)(=O)Nc1cccc(OC(F)(F)F)c1 (stereo not shown) [Example 1.387]
≤ 200 | COc1cc(NC(=O)[C@@H](CO)C2CC2)ccc1S(=O)(=O)Nc1cccc(OC(F)(F)F)c1 [Example 1.283]
